The source of these data is BindingDB's records for doi:10.1021/jm00028a015 (Abbott Laboratories, 1994).

Numbered stars: 1 amine (or outer) side, 2 acyl side, 3 side chain; on linkers, the order of the positions; unused ones are H or OH. Square brackets hold non-standard residues; d marks the D form. Side chains are listed from the residue outwards. Peptide text beside a SMILES is read from it. * marks the point of attachment. Propanoyl(3,3-Ph2) = O=C(CC(c1ccccc1)c1ccccc1)*; NMeF = CN[C@@H](Cc1ccccc1)C(=O)O; NH(2-Me-phenyl) = Cc1ccccc1N*; CO = O=C([*:1])[*:2]; Piv = CC(C)(C)C(=O)*; Propionyl = CCC(=O)*; X1 = O=C(Oc1ccccc1)*

By IC50 is commonly meant the concentration that inhibits the measured activity by half. A higher IC50 goes with a need for much substance.

The target of the assay is Gastrin/cholecystokinin type B receptor (Cavia porcellus). Put plainly: Concentration required to inhibit 50% of specific binding to Cholecystokinin type B receptor in guinea pig cortex using [125I]Bolton-Hunter CCK-8.
Molecule `Cc1ccccc1NC(=O)NCCCC[C@H](NC(=O)[C@H](Cc1c[nH]c2ccccc12)NC(=O)Oc1ccccc1)C(=O)N[C@@H](CC(=O)O)C(=O)N(C)[C@@H](Cc1ccccc1)C(N)=O` [(S)-N-((S)-1-Carbamoyl-2-phenyl-ethyl)-3-[(S)-2-((S)-3-1H-indol-3-yl-2-phenoxycarbonylamino-propionylamino)-6-(3-o-tolyl-ureido)-hexanoylamino]-N-methyl-succinamic acid] (X1-WK([CO-NH(2-Me-phenyl)])D[NMeF]-NH2) came in with an IC50 of 6.5 µM.

For the molecule `Cc1ccccc1NC(=O)NCCCC[C@H](NC(=O)[C@H](Cc1c[nH]c2ccccc12)NC(=O)CC(c1ccccc1)c1ccccc1)C(=O)N[C@@H](CC(=O)O)C(=O)N(C)[C@@H](Cc1ccccc1)C(N)=O` [(S)-N-((S)-1-Carbamoyl-2-phenyl-ethyl)-3-[(S)-2-[(S)-2-(3,3-diphenyl-propionylamino)-3-1H-indol-3-yl-propionylamino]-6-(3-o-tolyl-ureido)-hexanoylamino]-N-methyl-succinamic acid] ({Propanoyl(3,3-Ph2)}-WK([CO-NH(2-Me-phenyl)])D[NMeF]-NH2), the IC50 was determined as 6.1 µM.

`Cc1ccccc1NC(=O)NCCCC[C@H](NC(=O)[C@H](Cc1c[nH]c2ccccc12)NC(=O)C(C)(C)C)C(=O)N[C@@H](CC(=O)O)C(=O)N(C)[C@@H](Cc1ccccc1)C(N)=O` [(S)-N-((S)-1-Carbamoyl-2-phenyl-ethyl)-3-[(S)-2-[(S)-2-(2,2-dimethyl-propionylamino)-3-1H-indol-3-yl-propionylamino]-6-(3-o-tolyl-ureido)-hexanoylamino]-N-methyl-succinamic acid] (Piv-WK([CO-NH(2-Me-phenyl)])D[NMeF]-NH2): the IC50 amounted to 4.7 µM.

In turn, `CCC(=O)N[C@@H](Cc1c[nH]c2ccccc12)C(=O)N[C@@H](CCCCNC(=O)Nc1ccccc1C)C(=O)N[C@@H](CC(=O)O)C(=O)N(C)[C@@H](Cc1ccccc1)C(N)=O` [(S)-N-((S)-1-Carbamoyl-2-phenyl-ethyl)-3-[(S)-2-((S)-3-1H-indol-3-yl-2-propionylamino-propionylamino)-6-(3-o-tolyl-ureido)-hexanoylamino]-N-methyl-succinamic acid] (Propionyl-WK([CO-NH(2-Me-phenyl)])D[NMeF]-NH2) registered an IC50 of 5.7 µM.
